Reference: patent US20220054532A1, “VETERINARY COMPOSITIONS AND METHODS OF USE THEREFOR” (priority 2019, published 2022)

What was measured:
Assay type in all cases: in vivo
[1] = system: dogs suffering from GI-specific inflammation; test: Example 11: GI-specific inflammation, owner-rated symptom reduction (canine, CBD Complex); settings: canine (FIG. 11a), symptom reduction score 0 (no reduction) to 4 (resolution of symptoms); for Final Score: after 28 days BID
Source text: This example examines the ability of embodiments of the invention versus Pepcid® to treat unwanted GI-specific inflammation characterized by gastritis, reflux, vomiting, diarrhea, and inappetence.
The first patient group is twenty dogs suffering from GI-specific inflammation. The second patient group is twenty cats suffering from GI-specific inflammation. Each patient group is broken into five groups of four animals. The first groups receive Pepcid® as the sole active agent; the second groups receive a composition comprising HMW HA as the sole active agent; the third groups receive a composition comprising CBD as the sole active agent; the fourth groups receive a composition comprising HMW HA and CBD Complex as the active agents; and the fifth groups receive a composition comprising HMW HA, CBD Complex, and glutathione as the active agents.
Each composition is administered for a period of twenty-eight (28) days, BID. The owner observes potential reduction of symptoms at the end of treatment and rates the reduction as no reduction (score of 0), mild reduction (score of 1), moderate reduction (score of 2), significant reduction (score of 3), or resolution of symptoms (score of 4).

[2] = system: dogs suffering from seizures; test: Example 14: seizures in dogs (CBD Complex); settings: seizure scale 1 (seizure-free) to 10 (daily or multiple seizures); for Initial Score: day 0; for Final Score: day 60, BID
Source text: This example examines the ability of embodiments of the invention versus phenobarbital to treat seizures.
The patient group is twenty-four dogs suffering from seizures as diagnosed by their referring veterinarian. The patient group is broken into six groups of four animals. The first group receives phenobarbital as the sole active agent; the second group receives a composition comprising phenobarbital and Keppra®; the third group receives a composition comprising HMW HA as the sole active agent; the fourth group receives a composition comprising CBD as the sole active agent; the fifth group receives a composition comprising HMW HA and CBD Complex as the active agents; and the sixth group receives a composition comprising HMW HA, CBD Complex, valerian root, and scutillaria as the active agents.
Each composition is administered for a period of sixty (60) days, BID. Each dog is evaluated on days 0 (“Initial Score”), 15, 30, 45, and 60 (“Final Score”) of treatment. The results are averaged and characterized on a scale of 1 (seizure-free) to 10 (daily seizures or multiple seizures during the event).
The following canine scores are observed and the results depicted in FIG. 14: […]

[3] = system: horses suffering from joint inflammation; test: Example 12: joint inflammation, thermal imaging (equine, CBD Complex); settings: over the inflamed joint, 60 days BID
Source text: This example examines the ability of embodiments of the invention versus Cosequin® to treat joint inflammation.
The first patient group is twenty dogs suffering from joint inflammation. The second patient group is twenty cats suffering from joint inflammation. The third patient group is twenty horses suffering from joint inflammation. Each patient group is broken into five groups of four animals. The first groups receive Cosequin® as the sole active agent; the second groups receive a composition comprising HMW HA as the sole active agent; the third groups receive a composition comprising CBD as the sole active agent; the fourth groups receive a composition comprising HMW HA and CBD Complex as the active agents; and the fifth groups receive a composition comprising HMW HA, CBD Complex, Boswellia, and superoxide dismutase (“SOD”) as the active agents.
Each composition is administered for a period of sixty (60) days, BID. Efficacy is determined by a decrease in body temperature over the inflamed joint, as measured by thermal imaging (e.g., via Digatherm device). Thermal imaging is performed on days 0 (“Initial Score”), 15, 30, 45, and 60 (“Final Score”) of treatment.
The following equine scores are observed and the results depicted in FIG. 12c: […]

[4] = system: dogs suffering behavior aberrations and/or anxiety; test: Example 5: behavior aberrations and anxiety, C-BARQ (canine); settings: C-BARQ day 0 vs 60, SID, 0 (no improvement) to 3 (marked improvement)
Source text: This example examines the ability of embodiments of the invention versus Clomicalm® to reduce behavior aberrations and anxiety.
The first patient group is twenty dogs suffering behavior aberrations and/or anxiety, as determined by the canine behavioral assessment and research questionnaire (“C-BARQ”). See, e.g., P. Wiener et al., Use of questionnaire-based data to assess dog personality, 16 JOURNAL OF VETERINARY BEHAVIOR 81-85 (2016). The second patient group is twenty cats suffering behavior aberrations and/or anxiety, as determined by the feline behavioral assessment and research questionnaire (“Fe-BARQ”).
Each group is broken into five groups of four animals. The first group receives Clomicalm® as the sole active agent; the second group receives a composition comprising HMW HA as the sole active agent; the third group receives a composition comprising CBD as the sole active agent; the fourth group receives a composition comprising HMW HA and CBD as the active agents; and the fifth group receives a composition comprising HMW HA, CBD, valerian root, and scutillaria as the active agents.
Each composition is administered for a period of sixty (60) days, once a day (“SID”). Owners complete the species-appropriate C-BARQ or Fe-BARQ on days 0 and 60 of treatment. The results from the overall questionnaire are averaged and characterized as no improvement (score of 0), mild improvement (score of 1), moderate improvement (score of 2), or marked improvement (score of 3).
The following canine scores are observed and the results depicted in FIG. 5a: […]

[5] = system: dogs suffering from osteoarthritis; test: Example 9: pain relief and side effects in canine osteoarthritis (CBD Complex); settings: dogs with osteoarthritis, 4 weeks of administration, group average
Source text: This example examines the ability of various compositions to minimize pain and examines the level of adverse side effects of each composition.
At the outset of the study, participants receive a full physical examination, including weight measurement, thigh circumference, and CBC/blood chemistries. Because osteoarthritis is not only a disease of pain, but one characterized by behavioral, appetite, anxiety/aggression, family socialization, and sleep aberrations, the pet's owners are familiarized with the pain scale (canine orthopedic index) and additional behavioral assessment log.
The patient group is twenty-four dogs suffering from osteoarthritis, broken into eight groups of three dogs. The first group receives a control composition with no active agent; the second group receives a composition comprising HA as the sole active agent; the third group receives a composition comprising HMW HA as the sole active agent; the fourth group receives a composition comprising CBD as the sole active agent; the fifth group receives a composition comprising HA and CBD as the active agents; the sixth group receives a composition comprising HMW HA and CBD Complex as the active agents; the seventh group receives a composition comprising Rimadyl as the active agent; and the eighth group receives a composition comprising Meloxicam as the active agent.
Each composition is administered for a period of four (4) weeks. The owner completes the electronic log questionnaire each week. At the end of the 4-week study, participants have another full physical examination, including weight measurement, thigh circumference, and CBC/blood chemistries, with an exit interview of the owners to gain final impressions.
Each group is evaluated for pain scores and the scores averaged. The following scores are observed and the results depicted in FIG. 9: […]

Compound	Final Score [1]	Initial Score [1]	Initial Score [2]	Final Score [2]	Reduction in Temperature (° F.) [3] [° F.]	Improvement Score [4]	Average Pain Score [5]	Average Side Effect Score [5]	Average Pain Score ([5]; listed as CBD alone)	Average Side Effect Score ([5]; listed as CBD alone)	Average Pain Score ([5]; listed as HMW HA alone)	Average Side Effect Score ([5]; listed as HMW HA alone)
C=C(C)[C@@H]1CCC(C)=C[C@H]1c1c(O)cc(CCCCC)cc1O [CBD Alone, 2-[(1R,6R)-3-methyl-6-prop-1-en-2-ylcyclohex-2-en-1-yl]-5-pentylbenzene-1,3-diol]	2	0	9	4	1.6	2	19	0.5	not especially effective in reducing pain	even lower degree of adverse side effects	–	–
hyaluronic acid [HMW HA Alone]	3	0	9	5	2.1	1	16	4	–	–	only slightly reduce pain	low degree of adverse side effects
